The record followed here is patent US6531512B1, “Method of treating cancer in patients having a deficiency in p53 tumor suppressor gene” (Health Research Inc., priority 1998, dated 2003).

The test system of data set [1] is MALME-3M human melanoma cells. The data set can be described thus: Cell growth of MALME-3M cells (Coulter Counter). Format: cell-based. The settings on record: 10 μM. Here is the method:
(§1) MALME-3M human melanoma cells containing wt-p53 (American Tissue Type Culture Collection, Bethesda, Md.) and human SK-MEL-28 cells containing mt-p53 (American Tissue Type Culture Collection, Bethesda, Md.) were cultured as a monolayer in RPMI 1640 medium containing 10% Nu-Serum (Collaborative Research Products, Bedford, Mass.), 1 mM aminoguanidine, penicillin (50 units/ml) and streptomycin (50 μg/ml) as described by Kramer et al, J. Biol. Chem., 270:2124-32 (1995) and Kramer et al., Cancer Res., 57:5521-5527 (1997).
(§2) MALME-3M cells were cultured as described in Example 1. The cells were seeded by adding 1×10^5 cells to a T-25 vented cell culture flask. After 24 hours, the asynchronous cell cultures were treated with 10 μM N^1, N^11-diethylnorspermine (DENSPM) prepared by dissolving DENSPM in distilled water and sterilizing the solution by filtration through a 0.22 micron Millipore membrane. The cells were treated by continuous exposure to DENSPM for 6 days (i.e., the polyamine was added to the cell culture at T=0 and the culture was incubated for the desired amount of time). The number of viable MALME-3M cells were monitored electronically using a Model ZM Coulter Counter (Coulter Electronics, Hialeah, Fla.). Untreated MALME-3M cell cultures were used as controls.
(§3) MALME-3M human melanoma cells were cultured as described in Example 1 and treated continuously with 10 μM DENSPM or 10 μM spermine (SPM) for 48 hours. SK-MEL-28 cells were also cultured as described in Example 1 and treated with 10 μM DENSPM for 24 hours. Untreated cells were used as a control.
(§4) The effect of DENSPM and spermine on cell growth was monitored using a Coulter Counter (see Example 2). The effect on cell cycle was monitored by flow cytometry as described in Example 3.

The test system of data set [2] is MALME-3M human melanoma cells. The data set can be described thus: Cell cycle distribution of MALME-3M cells by flow cytometry. Format: cell-based. The note with it: MALME-3M (wt-p53), asynchronous, 10 μM, 48 hours. How it is done: MALME-3M cells were cultured as described in Example 1 and treated with 10 μM DENSPM as described in Example 2. Cell cycle arrest was monitored using a FACScan flow cytometry unit (Becton Dickinson, San Jose, Calif.) according to the method of Krishan (1975) J. Cell Biol. 66:[…]. Untreated MALME-3M cell cultures were used as controls.
Cell cycle arrest of serum synchronized MALME-3M cells was also monitored using flow cytometry. MALME-3M cells were synchronized in G0/G1 by replacing cell culture media containing 10% NuSerum (see Example 1) with media lacking NuSerum and incubating the cultures for 120 hours. The synchronized cells were released by the addition of 10% NuSerum (control culture) or 10% NuSerum plus 10 μM DENSPM. The cells were then grown continuously in the presence of serum (control) or DENSPM for up to 96 hours. The untreated cells (control) re-established an asynchronous profile (i.e., progressed through the cell cycle) by 60 hours.
as §4
In general terms: Flow cytometry measures light scatter and fluorescence of single cells or particles in a stream.

Data set [3] relates to ornithine decarboxylate (ODC). The data set can be described thus: Polyamine enzyme activity in treated melanoma cells: ODC. Format: cell-based, human. The settings on record: for Enzyme Activities, ODC: SK-MEL-28 cells, 24 hours, Table 4. How it is done: (§5) MALME-3M human melanoma cells were cultured as described in Example 1 and treated with 10 μM DENSPM or 10 μM spermine (SPM) as described in Example 4. SK-MEL-28 cells were also cultured as described in Example 1 and treated with 10 μM DENSPM as describe in Example 4. Untreated cells were used as a control.
(§6) After treatment with DENSPM or spermine, biochemical parameters including polyamine enzymes activity, polyamine pools and analog accumulation were monitored as described by Kramer et al, J. Biol. Chem., 270:2124-32 (1995) and Kramer et al., Cancer Res., 57:5521-5527 (1997). Polyamine enzyme activity was monitored for ornithine […] (ODC); S-adenosylmethionine decarboxylase (SAMDC); and spermidine/spermine N^1-acetyltransferase (SSAT). Polyamine pools was monitored for putrescine (Put); spermidine (Spd); and spermine (Spm).
(§7) Enzyme activity and polyamine pools were measured as described in Example 5.

Data set [4] deals with S-adenosylmethionine decarboxylase (SAMDC). Description: Polyamine enzyme activity in treated melanoma cells: SAMDC. The settings on record: MALME-3M (wt-p53), 10 μM, Table 2 (24 hours treatment). Format: cell-based, human. How it is done: as §5, §6
Data set [5] relates to spermidine/spermine N^1-acetyltransferase (SSAT). Description: Polyamine enzyme activity in treated melanoma cells: SSAT induction. The settings on record: for Enzyme Activities, SSAT: Table 4. Format: cell-based, human. Here is the method:
as §5, §6, §7

The test system of data set [6] is MALME-3M human melanoma cells. The data set can be described thus: Polyamine pools in MALME-3M cells. Format: cell-based. The note with it: MALME-3M (wt-p53), 10 μM, Table 2 (24 hours treatment). How it is done:
as §5, §6

For data set [7], the system named is SK-MEL-28 human melanoma cells. Description: Cell growth / apoptotic response of SK-MEL-28 cells (Coulter Counter, growth kinetics). Format: cell-based. The note with it: SK-MEL-28 cells; for % Control Growth: 24 hours, Table 4; for cell growth and/or apoptosis response: growth kinetic analysis. How it is done:
as §1, §2, §3
The effect of DENSPM and spermine on cell growth was monitored using a Coulter Counter (see Example 2). The effect on cell cycle was monitored by flow cytometry as described in Example 3. […]

Data set [8] deals with SK-MEL-28 human melanoma cells. Description: Polyamine pools and analog accumulation in SK-MEL-28 cells. Type of data set: cell-based. The note with it: SK-MEL-28 cells, 24 hours; for Analog (intracellular accumulation) / Polyamine Pools, Put / Polyamine Pools, Spd / Polyamine Pools, Spm: Table 4. Here is the method: as §5, §6, §7
[9] abbreviates: MALME-3M (wt-p53), 10 μM, Table 2 (24 hours treatment).

A value given as a limit tells only on which side of the number the result lay.

On to `NCCCNCCCCNCCCN` [SPM, spermine, reference compound], for which the “% Control Growth” value in data set [1] (MALME-3M (wt-p53), 48 hours) turned out to be 96%. For the same compound, in data set [1] (MALME-3M (wt-p53), Table 2 (24 hours treatment)), the “% Growth Control” value is given as 97%. For the same compound, the “effect on growth or cell cycle compared to control cells” value in data set [1] (MALME-3M, 48 hours) is recorded as “no effect”. In addition, in data set [2], the “% Total Cells at 48 hours, G1” value is given as 67%; the “% Total Cells at 48 hours, G2/M” value came to 10%; the “% Total Cells at 48 hours, S” value turned out to be 23%. In data set [3] (setting [9]), this compound registered an ODC activity of 175 pmol/hr/mg protein. Further, the SAMDC activity in data set [4] amounted to 20 pmol/hr/mg protein. Besides, in data set [5] (setting [9]), the SSAT activity was 210 pmol/min/mg. In addition, in data set [6], the “Polyamine Pools, Put” value is reported as <5 pmol/10^6 cells; the “Polyamine Pools, Spd” value came to 470 pmol/10^6 cells; the “Polyamine Pools, Spm” value came to 2430 pmol/10^6 cells.
In the case of `CCNCCCCNCCCCNCCCNCC` [DE-443, 3,7,12,17-tetraazanonadecane], in data set [7], the “% Control Growth” value is given as 77% and the “cell growth and/or apoptosis response” value is on record as “apoptotic response with a 48 hour delay”. Moreover, the “Enzyme Activities, ODC” value in data set [3] was determined as 32 pmol/hr/mg protein. For the same compound, in data set [5] (SK-MEL-28 cells, 24 hours), the “SSAT activity” value is on record as 5,215 pmol/min/mg and the “Enzyme Activities, SSAT” value worked out at 5215 pmol/min/mg protein. Besides, in data set [8], the “Analog (intracellular accumulation)” value is reported as 5610 pmol/10^6 cells; the “Polyamine Pools, Put” value was found to be 20 pmol/10^6 cells; the “Polyamine Pools, Spd” value is recorded as 70 pmol/10^6 cells; the “Polyamine Pools, Spm” value is given as 500 pmol/10^6 cells.
As for `CCNCCCCNCCCCNCCCCNCC` [DE-444, N^1,N^14-diethylhomospermine], in data set [7], the “% Control Growth” value is 97% and the “cell growth and/or apoptosis response” value was “cytostatic response”. The “Enzyme Activities, ODC” value in data set [3] was determined as 14 pmol/hr/mg protein. Besides, in data set [5] (SK-MEL-28 cells, 24 hours), the “SSAT activity” value was determined as 930 pmol/min/mg and the “Enzyme Activities, SSAT” value came out at 930 pmol/min/mg protein. Besides, in data set [8], the “decrease in spermine pools” value was found to be 65%; the “Analog (intracellular accumulation)” value is listed as 5950 pmol/10^6 cells; the “Polyamine Pools, Put” value is given as 20 pmol/10^6 cells; the “Polyamine Pools, Spd” value was 120 pmol/10^6 cells. In addition, the “Polyamine Pools, Spm” value in data set [8] is listed as 1015 pmol/10^6 cells.
With `CCNCCCNCCCCNCCCNCC` [DE-343, N^1,N^12-diethylspermine], in data set [7], the “% Control Growth” value was found to be 59% and the “cell growth and/or apoptosis response” value is recorded as “apoptotic response similar to that by DENSPM with a 24 hour delay”. In addition, in data set [3], the “Enzyme Activities, ODC” value worked out at 23 pmol/hr/mg protein. Also, in data set [5] (SK-MEL-28 cells), the “SSAT activity relative to DE-444 (times higher)” value worked out at 10 times and the “SSAT activity relative to DENSPM (fold less)” value was “about 3 fold”. In data set [5] (SK-MEL-28 cells, 24 hours), the “SSAT activity” value was 9,470 pmol/min/mg and the “Enzyme Activities, SSAT” value came to 9470 pmol/min/mg protein. Moreover, in data set [8], the “Analog (intracellular accumulation)” value was found to be 5830 pmol/10^6 cells; the “Polyamine Pools, Put” value is listed as 60 pmol/10^6 cells; the “Polyamine Pools, Spd” value is listed as 60 pmol/10^6 cells; the “Polyamine Pools, Spm” value was found to be 200 pmol/10^6 cells.
